What follows are compounds tested on HCV genotype-1a variant with glutamine 30 changed to glutamate in the NS5A protein. Conditions: test compound titrated with BMS-790052 fixed at 200 nM; genotype 1a Q30E replicon.
Format: cell-based
Outline: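 Synergy was assessed by combining several fixed amounts of an NS5A-targeting compound with a titration of the second compound of interest.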
In the case of `CC(C)[C@H](NC(=O)C(=O)C1(CO)CCC(F)(F)CC1)c1ncc(-c2ccc(-c3ccc(-c4cnc([C@@H](NC(=O)C(=O)C5(CO)CCC(F)(F)CC5)C(C)C)[nH]4)cc3)cc2)[nH]1` [Compound P-128], the “Fold-Synergistic 1a (Q30E)” value is reported as greater than 100 fold.
In the case of `CC(C)[C@H](NC(=O)C(=O)C1CC2CCC(C1)C2(F)F)c1ncc(-c2ccc(-c3ccc(-c4cnc([C@@H](NC(=O)C(=O)C5CC6CCC(C5)C6(F)F)C(C)C)[nH]4)cc3)cc2)[nH]1` (stereo partly drawn) [Compound P-129], the “Fold-Synergistic 1a (Q30E)” value is reported as greater than 100 fold.
In the case of `CC(C)[C@H](NC(=O)N1CCC(F)(F)CC1)c1nc(-c2ccc(-c3ccc(-c4c[nH]c([C@@H](NC(=O)N5CCC(F)(F)CC5)C(C)C)n4)cc3)cc2)c[nH]1` [Compound P-130], the “Fold-Synergistic 1a (Q30E)” value is reported as greater than 100 fold.
For `O=C(N1CCC(F)(F)CC1)N1CCC[C@H]1c1ncc(-c2ccc(-c3ccc(-c4cnc([C@@H]5CCCN5C(=O)N5CCC(F)(F)CC5)[nH]4)cc3)cc2)[nH]1` [Compound P-131], the “Fold-Synergistic 1a (Q30E)” value was greater than 100 fold.
With `COC1(C(=O)N[C@H](c2ncc(-c3ccc(-c4ccc(-c5cnc([C@@H](NC(=O)C6(OC)CCC(F)(F)CC6)C6(C)CC6)[nH]5)cc4)cc3)[nH]2)C2(C)CC2)CCC(F)(F)CC1` [Compound P-132] the “Fold-Synergistic 1a (Q30E)” value was greater than 100 fold.
`CC1(C(=O)N[C@H](c2ncc(-c3ccc(-c4ccc(-c5cnc([C@@H](NC(=O)C6(C)CCC(F)(F)CC6)C6(C)CC6)[nH]5)cc4)cc3)[nH]2)C2(C)CC2)CCC(F)(F)CC1` [Compound P-133] was tested, and the “Fold-Synergistic 1a (Q30E)” value was greater than 100 fold.
In the case of `CC1([C@H](NC(=O)N2CCC(F)(F)CC2)c2nc(-c3ccc(-c4ccc(-c5c[nH]c([C@@H](NC(=O)N6CCC(F)(F)CC6)C6(C)CC6)n5)cc4)cc3)c[nH]2)CC1` [Compound P-135], the “Fold-Synergistic 1a (Q30E)” value is reported as greater than 100 fold.
For `O=C(N1CCC(F)(F)CC1)C1(c2nc(-c3ccc(-c4ccc(-c5c[nH]c(C6(C(=O)N7CCC(F)(F)CC7)CCC6)n5)cc4)cc3)c[nH]2)CCC1` [Compound P-137], the “Fold-Synergistic 1a (Q30E)” value was greater than 10 fold.
With `CC(C)(C)[C@H](NC(=O)OC1CCC(F)(F)CC1)c1nc(-c2ccc(-c3ccc(-c4c[nH]c([C@@H](NC(=O)OC5CCC(F)(F)CC5)C(C)(C)C)n4)cc3)cc2)c[nH]1` [Compound P-138] the “Fold-Synergistic 1a (Q30E)” value was greater than 100 fold.
In the case of `CC(C)(C)[C@H](NC(=O)C1(C2(O)CCC(F)(F)CC2)CC1)c1nc(-c2ccc(-c3ccc(-c4c[nH]c([C@@H](NC(=O)C5(C6(O)CCC(F)(F)CC6)CC5)C(C)(C)C)n4)cc3)cc2)c[nH]1` [Compound P-146], the “Fold-Synergistic 1a (Q30E)” value is reported as greater than 100 fold.
In the case of `CC(C)(C)[C@H](NC(=O)C1(C(=O)N2CCC(F)(F)CC2)CC1)c1nc(-c2ccc(-c3ccc(-c4c[nH]c([C@@H](NC(=O)C5(C(=O)N6CCC(F)(F)CC6)CC5)C(C)(C)C)n4)cc3)cc2)c[nH]1` [Compound P-148], the “Fold-Synergistic 1a (Q30E)” value is reported as greater than 100 fold.
`CC(C)(C)[C@H](NC(=O)C(C)(C)C1(O)CCC(F)(F)CC1)c1nc(-c2ccc(-c3ccc(-c4c[nH]c([C@@H](NC(=O)C(C)(C)C5(O)CCC(F)(F)CC5)C(C)(C)C)n4)cc3)cc2)c[nH]1` [Compound P-149] was tested, and the “Fold-Synergistic 1a (Q30E)” value was greater than 100 fold.
`CC(C)(C(=O)N[C@H](c1nc(-c2ccc(-c3ccc(-c4c[nH]c([C@@H](NC(=O)C(C)(C)C5CCC(F)(F)CC5)C(C)(C)C)n4)cc3)cc2)c[nH]1)C(C)(C)C)C1CCC(F)(F)CC1` [Compound P-150] was tested, and the “Fold-Synergistic 1a (Q30E)” value was greater than 100 fold.
With `CC1(C(NC(=O)C2(O)CCC(F)(F)CC2)c2nc(-c3ccc(-c4ccc(-c5c[nH]c(C(NC(=O)C6(O)CCC(F)(F)CC6)C6(C)CC6)n5)cc4)cc3)c[nH]2)CC1.O=C(O)C(F)(F)F.O=C(O)C(F)(F)F` (stereo not drawn) [Compound P-151] the “Fold-Synergistic 1a (Q30E)” value was greater than 100 fold.
With `CC1(C)COC(C)(C(=O)N[C@H](c2nc(-c3ccc(-c4ccc(-c5c[nH]c([C@@H](NC(=O)C6(C)OCC(C)(C)CO6)C(C)(C)C)n5)cc4)cc3)c[nH]2)C(C)(C)C)OC1` [Compound P-154] the “Fold-Synergistic 1a (Q30E)” value was greater than 100 fold.
For `CC(C)(C)[C@H](NC(=O)C(C)(C)C1(O)CCCCC1)c1nc(-c2ccc(-c3ccc(-c4c[nH]c([C@@H](NC(=O)C(C)(C)C5(O)CCCCC5)C(C)(C)C)n4)cc3)cc2)c[nH]1` [Compound P-160], the “Fold-Synergistic 1a (Q30E)” value was greater than 100 fold.
For `COC(=O)NC(C)(C)C(=O)N[C@H](c1nc(-c2ccc(-c3ccc(-c4c[nH]c([C@@H](NC(=O)C(C)(C)NC(=O)OC)C(C)(C)C)n4)cc3)cc2)c[nH]1)C(C)(C)C` [Compound Q-1], the “Fold-Synergistic 1a (Q30E)” value was greater than 100 fold.
For `CCOC(=O)NC(C)(C)C(=O)N[C@H](c1nc(-c2ccc(-c3ccc(-c4c[nH]c([C@@H](NC(=O)C(C)(C)NC(=O)OCC)C(C)(C)C)n4)cc3)cc2)c[nH]1)C(C)(C)C` [Compound Q-2], the “Fold-Synergistic 1a (Q30E)” value was greater than 100 fold.
For `CC(C)OC(=O)NC(C)(C)C(=O)N[C@H](c1nc(-c2ccc(-c3ccc(-c4c[nH]c([C@@H](NC(=O)C(C)(C)NC(=O)OC(C)C)C(C)(C)C)n4)cc3)cc2)c[nH]1)C(C)(C)C` [Compound Q-3], the “Fold-Synergistic 1a (Q30E)” value was greater than 100 fold.
With `CC(C)(NC(=O)OCCF)C(=O)N[C@H](c1nc(-c2ccc(-c3ccc(-c4c[nH]c([C@@H](NC(=O)C(C)(C)NC(=O)OCCF)C(C)(C)C)n4)cc3)cc2)c[nH]1)C(C)(C)C` [Compound Q-4] the “Fold-Synergistic 1a (Q30E)” value was greater than 100 fold.
`CC(C)(NC(=O)OC1CCCCC1)C(=O)N[C@H](c1nc(-c2ccc(-c3ccc(-c4c[nH]c([C@@H](NC(=O)C(C)(C)NC(=O)OC5CCCCC5)C(C)(C)C)n4)cc3)cc2)c[nH]1)C(C)(C)C` [Compound Q-6] was tested, and the “Fold-Synergistic 1a (Q30E)” value was greater than 100 fold.
`CC(C)(C)[C@H](NC(=O)C(C)(C)N1CCOCC1)c1nc(-c2ccc(-c3ccc(-c4c[nH]c([C@@H](NC(=O)C(C)(C)N5CCOCC5)C(C)(C)C)n4)cc3)cc2)c[nH]1` [Compound Q-7] was tested, and the “Fold-Synergistic 1a (Q30E)” value was greater than 100 fold.
In the case of `CC(C)[C@H](NC(=O)C1(C)CC1)c1ncc(-c2ccc(-c3ccc(-c4cnc([C@@H](NC(=O)C5(C)CC5)C(C)C)[nH]4)cc3)cc2)[nH]1` [Compound S-1], the “Fold-Synergistic 1a (Q30E)” value is reported as greater than 100 fold.
With `CC(C)[C@H](NC(=O)C1(c2ccc(Cl)cc2)CCCC1)c1ncc(-c2ccc(-c3ccc(-c4cnc([C@@H](NC(=O)C5(c6ccc(Cl)cc6)CCCC5)C(C)C)[nH]4)cc3)cc2)[nH]1` [Compound S-2] the “Fold-Synergistic 1a (Q30E)” value was greater than 100 fold.
For `CC(C)[C@H](NC(=O)CC1CCCC1)c1ncc(-c2ccc(-c3ccc(-c4cnc([C@@H](NC(=O)CC5CCCC5)C(C)C)[nH]4)cc3)cc2)[nH]1` [Compound S-3], the “Fold-Synergistic 1a (Q30E)” value was greater than 100 fold.
With `CC(C)[C@H](NC(=O)c1ccccc1)c1ncc(-c2ccc(-c3ccc(-c4cnc([C@@H](NC(=O)c5ccccc5)C(C)C)[nH]4)cc3)cc2)[nH]1` [Compound S-5] the “Fold-Synergistic 1a (Q30E)” value was greater than 100 fold.
`CC(C)[C@H](NC(=O)c1c(F)cccc1Cl)c1ncc(-c2ccc(-c3ccc(-c4cnc([C@@H](NC(=O)c5c(F)cccc5Cl)C(C)C)[nH]4)cc3)cc2)[nH]1` [Compound S-6] was tested, and the “Fold-Synergistic 1a (Q30E)” value was greater than 100 fold.
In the case of `CC(C)C(=O)N[C@H](c1ncc(-c2ccc(-c3ccc(-c4cnc([C@@H](NC(=O)C(C)C)C(C)C)[nH]4)cc3)cc2)[nH]1)C(C)C` [Compound S-7], the “Fold-Synergistic 1a (Q30E)” value is reported as greater than 100 fold.
For `CC(C)[C@H](NC(=O)c1ccco1)c1ncc(-c2ccc(-c3ccc(-c4cnc([C@@H](NC(=O)c5ccco5)C(C)C)[nH]4)cc3)cc2)[nH]1` [Compound S-8], the “Fold-Synergistic 1a (Q30E)” value was greater than 100 fold.
With `CC(C)[C@H](NC(=O)Cc1cccc2ccccc12)c1ncc(-c2ccc(-c3ccc(-c4cnc([C@@H](NC(=O)Cc5cccc6ccccc56)C(C)C)[nH]4)cc3)cc2)[nH]1` [Compound S-9] the “Fold-Synergistic 1a (Q30E)” value was greater than 10 fold.
With `CC(C)[C@H](NC(=O)c1ccc2ccccc2c1)c1ncc(-c2ccc(-c3ccc(-c4cnc([C@@H](NC(=O)c5ccc6ccccc6c5)C(C)C)[nH]4)cc3)cc2)[nH]1` [Compound S-10] the “Fold-Synergistic 1a (Q30E)” value was greater than 100 fold.
`CC(C)[C@H](NC(=O)C(F)F)c1ncc(-c2ccc(-c3ccc(-c4cnc([C@@H](NC(=O)C(F)F)C(C)C)[nH]4)cc3)cc2)[nH]1` [Compound S-11] was tested, and the “Fold-Synergistic 1a (Q30E)” value was greater than 100 fold.
With `CC(C)[C@H](NC(=O)C(c1ccccc1)c1ccccc1)c1ncc(-c2ccc(-c3ccc(-c4cnc([C@@H](NC(=O)C(c5ccccc5)c5ccccc5)C(C)C)[nH]4)cc3)cc2)[nH]1` [Compound S-12] the “Fold-Synergistic 1a (Q30E)” value was greater than 100 fold.
In the case of `COCC(=O)N[C@H](c1ncc(-c2ccc(-c3ccc(-c4cnc([C@@H](NC(=O)COC)C(C)C)[nH]4)cc3)cc2)[nH]1)C(C)C` [Compound S-13], the “Fold-Synergistic 1a (Q30E)” value is reported as greater than 10 fold.
With `CC(C)[C@H](NC(=O)c1cccs1)c1ncc(-c2ccc(-c3ccc(-c4cnc([C@@H](NC(=O)c5cccs5)C(C)C)[nH]4)cc3)cc2)[nH]1` [Compound S-14] the “Fold-Synergistic 1a (Q30E)” value was greater than 100 fold.
With `CC(C)[C@H](NC(=O)c1cnccn1)c1ncc(-c2ccc(-c3ccc(-c4cnc([C@@H](NC(=O)c5cnccn5)C(C)C)[nH]4)cc3)cc2)[nH]1` [Compound S-15] the “Fold-Synergistic 1a (Q30E)” value was greater than 10 fold.
In the case of `CC(C)[C@H](NC(=O)c1ccc(F)c(F)c1)c1ncc(-c2ccc(-c3ccc(-c4cnc([C@@H](NC(=O)c5ccc(F)c(F)c5)C(C)C)[nH]4)cc3)cc2)[nH]1` [Compound S-16], the “Fold-Synergistic 1a (Q30E)” value is reported as greater than 100 fold.
In the case of `CC(C)[C@H](NC(=O)c1cccc(-c2ccccc2)c1)c1ncc(-c2ccc(-c3ccc(-c4cnc([C@@H](NC(=O)c5cccc(-c6ccccc6)c5)C(C)C)[nH]4)cc3)cc2)[nH]1` [Compound S-17], the “Fold-Synergistic 1a (Q30E)” value is reported as greater than 100 fold.
In the case of `Cc1cc(C(=O)N[C@H](c2ncc(-c3ccc(-c4ccc(-c5cnc([C@@H](NC(=O)c6cc(C)on6)C(C)C)[nH]5)cc4)cc3)[nH]2)C(C)C)no1` [Compound S-18], the “Fold-Synergistic 1a (Q30E)” value is reported as greater than 100 fold.
`CC(C)[C@H](NC(=O)c1ccc2nccnc2c1)c1ncc(-c2ccc(-c3ccc(-c4cnc([C@@H](NC(=O)c5ccc6nccnc6c5)C(C)C)[nH]4)cc3)cc2)[nH]1` [Compound S-19] was tested, and the “Fold-Synergistic 1a (Q30E)” value was greater than 100 fold.
In the case of `CC(C)[C@H](NC(=O)C1CC1)c1ncc(-c2ccc(-c3ccc(-c4cnc([C@@H](NC(=O)C5CC5)C(C)C)[nH]4)cc3)cc2)[nH]1` [Compound S-20], the “Fold-Synergistic 1a (Q30E)” value is reported as greater than 100 fold.
`CC(C)C(NC(=O)C1CC1c1ccccc1)c1ncc(-c2ccc(-c3ccc(-c4cnc(C(NC(=O)C5CC5c5ccccc5)C(C)C)[nH]4)cc3)cc2)[nH]1` (stereo not drawn) [Compound S-21] was tested, and the “Fold-Synergistic 1a (Q30E)” value was greater than 100 fold.
